Experimental data: ChEMBL document CHEMBL1201862, “PubChem BioAssay data set” (2004)
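Where inhibition never reached the appropriate level, the endpoint shown equals the highest concentration tested. Otherwise, values were interpolated linearly from a five-concentration, 48-hour dose response in 96-well plates. GI50 = concentration required for 50% inhibition of growth.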 Activity calls are given as the source filed them. No stated cut-off is given here; in the data, active = GI50 up to about 1.1 µM and inactive = higher.

Tests used:
Experiment in all cases: NCI-60 cell line screen, 48 h
786-0 = tested on: 786-0
A498 = tested on: A498
A549 = tested on: A549
EKVX = tested on: EKVX
HCT-15 = tested on: HCT-15
HL-60 = tested on: HL-60
HOP-92 = tested on: HOP-92
M14 = tested on: M14
Malme-3M = tested on: Malme-3M
OVCAR-4 = tested on: OVCAR-4
SF-268 = tested on: SF-268
SF-295 = tested on: SF-295
SF-539 = tested on: SF-539
SK-MEL-5 = tested on: SK-MEL-5
SNB-75 = tested on: SNB-75
U-251 = tested on: U-251
UO-31 = tested on: UO-31
SR = tested on: SR

| Compound | GI50 (786-0) | GI50 (A498) | GI50 (A549) | GI50 (EKVX) | GI50 (HCT-15) [µM] | GI50 (HL-60) | GI50 (HOP-92) | GI50 (M14) | GI50 (Malme-3M) | GI50 (OVCAR-4) | GI50 (SF-268) | GI50 (SF-295) | GI50 (SF-539) | GI50 (SK-MEL-5) | GI50 (SNB-75) | GI50 (U-251) | GI50 (UO-31) | GI50 (SR) |
| --- | --- | --- | --- | --- | --- | --- | --- | --- | --- | --- | --- | --- | --- | --- | --- | --- | --- | --- |
| Cc1ccccc1C(CCCO)C(=O)O (centres undefined) | > 100 µM (inactive) | > 100 µM (inactive) | > 100 µM (inactive) | > 100 µM (inactive) | > 100 | > 100 µM (inactive) | > 100 µM (inactive) | > 100 µM (inactive) | > 100 µM (inactive) | > 100 µM (inactive) | > 100 µM (inactive) | > 100 µM (inactive) | > 100 µM (inactive) | > 100 µM (inactive) | > 100 µM (inactive) | > 100 µM (inactive) | > 100 µM (inactive) | – |
| COC(=O)N/N=C(\Cc1ccccc1)CN(C)C | > 100 µM (inactive) | > 100 µM (inactive) | > 100 µM (inactive) | > 100 µM (inactive) | – | > 100 µM (inactive) | > 100 µM (inactive) | > 100 µM (inactive) | > 100 µM (inactive) | – | > 100 µM (inactive) | > 100 µM (inactive) | > 100 µM (inactive) | > 100 µM (inactive) | > 100 µM (inactive) | > 100 µM (inactive) | – | – |
| CC1=N/C(=C\c2ccc([N+](=O)[O-])cc2)C(=O)O1 | > 100 µM (inactive) | > 100 µM (inactive) | > 100 µM (inactive) | > 100 µM (inactive) | > 100 | > 100 µM (inactive) | > 100 µM (inactive) | > 100 µM (inactive) | > 100 µM (inactive) | > 100 µM (inactive) | > 100 µM (inactive) | > 100 µM (inactive) | > 100 µM (inactive) | > 100 µM (inactive) | – | > 100 µM (inactive) | > 100 µM (inactive) | – |
| COC(=O)C1CC2(CC3=C1CCCC3)OCCO2 (centres undefined) | > 100 µM (inactive) | > 100 µM (inactive) | > 100 µM (inactive) | > 100 µM (inactive) | > 100 | > 100 µM (inactive) | > 100 µM (inactive) | > 100 µM (inactive) | > 100 µM (inactive) | > 100 µM (inactive) | > 100 µM (inactive) | > 100 µM (inactive) | > 100 µM (inactive) | > 100 µM (inactive) | > 100 µM (inactive) | > 100 µM (inactive) | > 100 µM (inactive) | – |
| C[C@]12CC[C@H](O)CC1=CC[C@@H]1C2CC[C@]2(C)Nc3c(cnn3-c3ccccc3)CC12 (some centres undefined) | 1.56 µM (inactive) | 3.61 µM (inactive) | 3.43 µM (inactive) | 6.07 µM (inactive) | 2.23 | 1.77 µM (inactive) | – | 6.34 µM (inactive) | 4.35 µM (inactive) | 7.23 µM (inactive) | – | 0.388 µM (active) | 0.9 µM (active) | 3.24 µM (inactive) | 1 µM (active) | 2.36 µM (inactive) | 5.51 µM (inactive) | – |
| CCOC(=O)NC(=O)c1cn(CCN2CCN(C(=O)CCCCCCCCCCC(=O)N3CCN(CCn4cc(C(=O)NC(=O)OCC)c(=O)[nH]c4=O)CC3)CC2)c(=O)[nH]c1=O | > 100 µM (inactive) | > 100 µM (inactive) | > 100 µM (inactive) | – | – | – | > 100 µM (inactive) | > 100 µM (inactive) | > 100 µM (inactive) | > 100 µM (inactive) | > 100 µM (inactive) | 36.8 µM (inactive) | > 100 µM (inactive) | > 100 µM (inactive) | > 100 µM (inactive) | > 100 µM (inactive) | > 100 µM (inactive) | > 100 µM (inactive) |
| CCOC(=O)c1ccc(N2C(=O)/C(=C\OC)c3ccccc3C2=O)cc1 | 27.2 µM (inactive) | – | 43.3 µM (inactive) | > 100 µM (inactive) | 36 | – | – | – | 18.7 µM (inactive) | 43.6 µM (inactive) | 27.7 µM (inactive) | 33.4 µM (inactive) | 32.4 µM (inactive) | 70.8 µM (inactive) | 25.5 µM (inactive) | 22.7 µM (inactive) | 15.5 µM (inactive) | 30.3 µM (inactive) |
| O[C@]12c3ccccc3C1CCCCC2N1CCOCC1 (some centres undefined) | > 100 µM (inactive) | – | > 100 µM (inactive) | > 100 µM (inactive) | > 100 | > 100 µM (inactive) | – | > 100 µM (inactive) | > 100 µM (inactive) | > 100 µM (inactive) | > 100 µM (inactive) | > 100 µM (inactive) | – | > 100 µM (inactive) | > 100 µM (inactive) | > 100 µM (inactive) | > 100 µM (inactive) | > 100 µM (inactive) |
| CC(C)(C)CC(C)(C)c1cc2c(O)c(c1)Cc1cc(C(C)(C)CC(C)(C)C)cc(c1O)Cc1cc(C(C)(C)CC(C)(C)C)cc(c1O)Cc1cc(C(C)(C)CC(C)(C)C)cc(c1O)Cc1cc(C(C)(C)CC(C)(C)C)cc(c1O)Cc1cc(C(C)(C)CC(C)(C)C)cc(c1O)C2 | > 100 µM (inactive) | – | > 100 µM (inactive) | > 100 µM (inactive) | > 100 | > 100 µM (inactive) | > 100 µM (inactive) | > 100 µM (inactive) | > 100 µM (inactive) | > 100 µM (inactive) | > 100 µM (inactive) | > 100 µM (inactive) | > 100 µM (inactive) | > 100 µM (inactive) | > 100 µM (inactive) | > 100 µM (inactive) | > 100 µM (inactive) | – |
